Measured values as given in publication PMC7316994, “In Vitro Pharmacological Profile of a New Small Molecule Bradykinin B2 Receptor Antagonist” (Frontiers in Pharmacology, 2020).

What was measured:
mouse B2 receptor = target: T1, mouse B2 receptor (Mus musculus, UniProt P32299); assay: Ca^2+ mobilization assay, HEK293T cells; format: cell-based; details: BK at EC80 0.53 nM, n=1
T1 construct: host or cells: HEK293T cells
T1 sequence (P32299 1-392): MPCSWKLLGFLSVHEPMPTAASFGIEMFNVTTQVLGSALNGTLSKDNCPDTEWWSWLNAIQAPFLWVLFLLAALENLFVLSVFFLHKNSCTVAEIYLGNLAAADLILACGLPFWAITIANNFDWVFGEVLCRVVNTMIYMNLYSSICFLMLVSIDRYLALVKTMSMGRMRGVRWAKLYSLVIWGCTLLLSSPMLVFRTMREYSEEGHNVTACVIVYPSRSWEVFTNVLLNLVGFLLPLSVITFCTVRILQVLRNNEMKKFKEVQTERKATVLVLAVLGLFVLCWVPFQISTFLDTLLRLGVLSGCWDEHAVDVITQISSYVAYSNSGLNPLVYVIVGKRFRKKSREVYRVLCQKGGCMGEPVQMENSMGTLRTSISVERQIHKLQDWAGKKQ

Adenosine A2A = target: T2, Adenosine A2A (Homo sapiens, UniProt P29274); assay: radioligand binding (Table S2); details: [3H] CGS 21680, Human recombinant HEK-293 cells
T2 construct: host or cells: HEK-293 cells

Adenosine A3 = target: T3, Adenosine A3 (Homo sapiens, UniProt P0DMS8); assay: radioligand binding (Table S2); details: [125I] AB-MECA, Human recombinant HEK-293 cells
T3 sequence (P0DMS8 1-318): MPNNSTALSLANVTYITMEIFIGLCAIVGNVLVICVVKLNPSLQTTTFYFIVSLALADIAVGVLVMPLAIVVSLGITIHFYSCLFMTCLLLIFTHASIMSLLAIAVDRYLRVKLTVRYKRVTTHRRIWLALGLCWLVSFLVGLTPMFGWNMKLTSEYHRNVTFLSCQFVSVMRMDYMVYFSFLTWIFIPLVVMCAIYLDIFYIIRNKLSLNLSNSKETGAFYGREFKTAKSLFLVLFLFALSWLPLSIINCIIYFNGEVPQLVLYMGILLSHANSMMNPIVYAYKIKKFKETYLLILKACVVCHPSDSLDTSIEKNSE

[1] = system: Benzodiazepine BZD (central); assay: radioligand binding (Table S2); details: [3H] Flunitrazepam, Rat cerebral cortex
Bombesin BB2 = target: T4, Bombesin BB2 (Homo sapiens, UniProt P30550); assay: radioligand binding (Table S2); details: [125I] [Tyr4]-bombesin, Human recombinant HEK-293 cells
T4 construct: host or cells: HEK-293 cells
T4 sequence (P30550 whole entry): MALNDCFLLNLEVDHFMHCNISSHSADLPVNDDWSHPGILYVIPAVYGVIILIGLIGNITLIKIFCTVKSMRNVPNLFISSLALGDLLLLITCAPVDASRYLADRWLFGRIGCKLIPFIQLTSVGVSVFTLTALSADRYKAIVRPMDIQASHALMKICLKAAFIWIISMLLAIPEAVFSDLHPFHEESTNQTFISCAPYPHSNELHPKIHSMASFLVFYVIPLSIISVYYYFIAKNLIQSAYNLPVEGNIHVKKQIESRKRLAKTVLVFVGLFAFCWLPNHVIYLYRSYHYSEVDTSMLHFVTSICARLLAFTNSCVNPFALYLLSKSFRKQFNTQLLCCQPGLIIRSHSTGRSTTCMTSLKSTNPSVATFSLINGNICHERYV

[2] = system: Glutamate ionotropic, NMDA; assay: radioligand binding (Table S2); details: [3H] CGP 39653, Rat cerebral cortex
[3] = system: Glutamate, NMDA, phencyclidine; assay: radioligand binding (Table S2); details: [3H] TCP, Wistar rat cerebral cortex
[4] = system: Glycine, strychnine-sensitive; assay: radioligand binding (Table S2); details: [3H] Strychnine, Wistar rat spinal cord
Kainate = assay: radioligand binding (Table S2); details: [3H] Kainic acid, Rat cerebral cortex
[5] = target: T5, Leukotriene B4 receptor BLT1 (Homo sapiens, UniProt Q15722); assay: radioligand binding (Table S2); details: [3H] LTB4, Human recombinant CHO cells
T5 construct: host or cells: CHO cells
T5 sequence (Q15722 whole entry): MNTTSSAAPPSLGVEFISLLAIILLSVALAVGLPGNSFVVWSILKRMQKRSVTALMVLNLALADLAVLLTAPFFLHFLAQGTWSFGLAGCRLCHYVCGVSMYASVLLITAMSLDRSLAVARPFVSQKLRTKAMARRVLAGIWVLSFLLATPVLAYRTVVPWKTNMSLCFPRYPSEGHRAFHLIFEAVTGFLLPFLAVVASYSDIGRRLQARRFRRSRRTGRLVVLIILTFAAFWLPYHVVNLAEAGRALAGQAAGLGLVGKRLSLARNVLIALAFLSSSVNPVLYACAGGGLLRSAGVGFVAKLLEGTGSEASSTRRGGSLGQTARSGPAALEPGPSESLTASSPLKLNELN

Orexin OX1 = target: T6, Orexin OX1 (Homo sapiens, UniProt O43613); assay: radioligand binding (Table S2); details: [125I] Orexin A, Human recombinant CHO cells
T6 construct: host or cells: CHO cells
T6 sequence (O43613 whole entry): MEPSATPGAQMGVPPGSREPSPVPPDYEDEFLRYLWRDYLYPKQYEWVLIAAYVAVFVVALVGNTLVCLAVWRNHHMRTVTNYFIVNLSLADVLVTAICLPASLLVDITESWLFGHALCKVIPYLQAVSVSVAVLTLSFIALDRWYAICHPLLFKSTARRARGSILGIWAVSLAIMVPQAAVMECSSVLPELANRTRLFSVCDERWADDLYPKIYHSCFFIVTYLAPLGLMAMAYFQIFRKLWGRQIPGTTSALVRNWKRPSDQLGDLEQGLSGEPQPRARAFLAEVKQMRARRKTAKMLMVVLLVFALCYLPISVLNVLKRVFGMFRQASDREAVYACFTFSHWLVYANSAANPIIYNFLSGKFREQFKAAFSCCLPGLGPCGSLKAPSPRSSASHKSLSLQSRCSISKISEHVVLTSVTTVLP

[6] = target: T7, Opioid nociceptin NOP (ORL1) (Homo sapiens, UniProt P41146); assay: radioligand binding (Table S2); details: [3H] Nociceptin, Human recombinant HEK-293 cells
T7 construct: host or cells: HEK-293 cells

[7] = target: T8, Platelet-activating factor PAF (Homo sapiens, UniProt P25105); assay: radioligand binding (Table S2); details: [3H] C16-PAF, Human recombinant CHO cells
T8 construct: host or cells: CHO cells
T8 sequence (P25105 whole entry): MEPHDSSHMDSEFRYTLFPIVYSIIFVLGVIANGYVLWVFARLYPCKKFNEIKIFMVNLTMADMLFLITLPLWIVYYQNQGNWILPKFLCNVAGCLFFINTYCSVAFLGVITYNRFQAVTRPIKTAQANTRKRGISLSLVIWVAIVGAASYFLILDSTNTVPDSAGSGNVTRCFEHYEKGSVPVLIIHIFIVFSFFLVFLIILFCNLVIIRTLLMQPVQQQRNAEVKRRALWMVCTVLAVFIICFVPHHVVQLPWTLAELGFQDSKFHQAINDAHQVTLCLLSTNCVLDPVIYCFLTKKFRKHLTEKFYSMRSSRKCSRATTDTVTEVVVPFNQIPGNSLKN

Serotonin 5-HT1B = target: T9, Serotonin 5-HT1B (Rattus norvegicus, UniProt P28564); assay: radioligand binding (Table S2); details: [125I] CYP (+ 30 µM isoproterenol), Rat cerebral cortex
T9 construct: tissue Eurofins; host or cells: rat cerebral cortex
T9 sequence (P28564 whole entry): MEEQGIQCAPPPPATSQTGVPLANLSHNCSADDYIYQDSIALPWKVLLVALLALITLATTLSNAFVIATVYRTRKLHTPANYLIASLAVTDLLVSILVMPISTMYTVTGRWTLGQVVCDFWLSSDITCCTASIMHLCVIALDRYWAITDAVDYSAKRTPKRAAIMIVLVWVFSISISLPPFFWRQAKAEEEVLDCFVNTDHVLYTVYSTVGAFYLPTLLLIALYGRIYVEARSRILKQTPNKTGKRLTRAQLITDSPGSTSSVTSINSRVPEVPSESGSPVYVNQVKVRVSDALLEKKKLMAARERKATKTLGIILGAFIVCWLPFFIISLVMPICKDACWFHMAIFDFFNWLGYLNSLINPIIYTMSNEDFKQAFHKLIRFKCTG

Serotonin 5-HT2C = target: T10, Serotonin 5-HT2C (Homo sapiens, UniProt P28335); assay: radioligand binding (Table S2); details: [3H] Mesulergine, Human recombinant HEK-293 cells
T10 construct: host or cells: HEK-293 cells
T10 sequence (P28335 33-458): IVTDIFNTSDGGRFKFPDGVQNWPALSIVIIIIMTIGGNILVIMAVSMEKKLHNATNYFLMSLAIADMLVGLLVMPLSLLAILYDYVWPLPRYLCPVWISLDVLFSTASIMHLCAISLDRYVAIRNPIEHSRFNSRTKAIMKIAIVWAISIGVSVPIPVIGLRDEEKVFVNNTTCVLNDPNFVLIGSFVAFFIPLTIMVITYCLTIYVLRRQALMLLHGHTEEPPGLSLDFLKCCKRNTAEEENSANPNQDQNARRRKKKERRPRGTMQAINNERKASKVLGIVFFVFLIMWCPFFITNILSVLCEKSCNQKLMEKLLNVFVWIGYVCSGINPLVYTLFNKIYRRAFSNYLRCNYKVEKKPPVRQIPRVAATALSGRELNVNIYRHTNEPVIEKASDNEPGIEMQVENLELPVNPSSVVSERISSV

IRK (InsR) = target: T11, IRK (InsR) (Homo sapiens, UniProt P06213); assay: enzyme assay (Table S2); format: biochemical; details: ATP + Ulight-PolyGAT (50 nM), LANCE
T11 construct: Eurofins (assay provider)
T11 sequence (P06213 28-1382): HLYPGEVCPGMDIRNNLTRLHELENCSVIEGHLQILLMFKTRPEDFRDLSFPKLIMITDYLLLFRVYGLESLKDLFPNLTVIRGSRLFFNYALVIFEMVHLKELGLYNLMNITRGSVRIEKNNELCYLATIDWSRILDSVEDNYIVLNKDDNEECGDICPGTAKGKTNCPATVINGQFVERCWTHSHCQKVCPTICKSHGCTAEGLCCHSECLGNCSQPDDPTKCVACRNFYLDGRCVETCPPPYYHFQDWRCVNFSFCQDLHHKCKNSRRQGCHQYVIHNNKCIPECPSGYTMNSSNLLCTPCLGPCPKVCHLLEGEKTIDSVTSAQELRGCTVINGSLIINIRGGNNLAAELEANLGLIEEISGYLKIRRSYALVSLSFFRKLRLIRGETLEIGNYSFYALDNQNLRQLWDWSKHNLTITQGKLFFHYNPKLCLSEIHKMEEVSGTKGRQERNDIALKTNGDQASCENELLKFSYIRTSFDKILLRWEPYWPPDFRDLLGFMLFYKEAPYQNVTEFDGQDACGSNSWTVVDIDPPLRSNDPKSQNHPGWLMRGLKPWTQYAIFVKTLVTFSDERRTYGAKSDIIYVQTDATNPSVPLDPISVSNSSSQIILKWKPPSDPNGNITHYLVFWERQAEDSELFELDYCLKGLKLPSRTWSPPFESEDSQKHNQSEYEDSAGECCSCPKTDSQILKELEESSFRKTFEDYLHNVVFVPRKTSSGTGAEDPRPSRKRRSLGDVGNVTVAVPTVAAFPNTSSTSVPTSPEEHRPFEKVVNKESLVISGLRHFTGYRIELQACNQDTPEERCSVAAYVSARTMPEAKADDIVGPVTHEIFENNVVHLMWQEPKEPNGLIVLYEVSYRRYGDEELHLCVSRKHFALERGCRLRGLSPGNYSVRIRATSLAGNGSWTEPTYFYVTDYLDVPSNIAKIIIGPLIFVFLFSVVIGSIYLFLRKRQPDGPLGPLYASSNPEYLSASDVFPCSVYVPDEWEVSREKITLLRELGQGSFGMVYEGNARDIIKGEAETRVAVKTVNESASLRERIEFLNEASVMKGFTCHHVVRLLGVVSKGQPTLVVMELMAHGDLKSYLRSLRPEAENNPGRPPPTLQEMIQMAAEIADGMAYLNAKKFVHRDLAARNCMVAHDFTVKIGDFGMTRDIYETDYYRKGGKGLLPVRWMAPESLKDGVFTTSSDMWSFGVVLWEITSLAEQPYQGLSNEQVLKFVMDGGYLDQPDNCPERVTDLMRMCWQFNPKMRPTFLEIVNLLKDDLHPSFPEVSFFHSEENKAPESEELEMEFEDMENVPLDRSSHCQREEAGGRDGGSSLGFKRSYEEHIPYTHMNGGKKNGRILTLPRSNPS

Neurokinin NK3 = target: T12, Neurokinin NK3 (Homo sapiens, UniProt P29371); assay: functional assay, intracellular [Ca2+], CHO cells (Table S2); format: cell-based
T12 construct: host or cells: CHO cells
T12 sequence (P29371 1-465): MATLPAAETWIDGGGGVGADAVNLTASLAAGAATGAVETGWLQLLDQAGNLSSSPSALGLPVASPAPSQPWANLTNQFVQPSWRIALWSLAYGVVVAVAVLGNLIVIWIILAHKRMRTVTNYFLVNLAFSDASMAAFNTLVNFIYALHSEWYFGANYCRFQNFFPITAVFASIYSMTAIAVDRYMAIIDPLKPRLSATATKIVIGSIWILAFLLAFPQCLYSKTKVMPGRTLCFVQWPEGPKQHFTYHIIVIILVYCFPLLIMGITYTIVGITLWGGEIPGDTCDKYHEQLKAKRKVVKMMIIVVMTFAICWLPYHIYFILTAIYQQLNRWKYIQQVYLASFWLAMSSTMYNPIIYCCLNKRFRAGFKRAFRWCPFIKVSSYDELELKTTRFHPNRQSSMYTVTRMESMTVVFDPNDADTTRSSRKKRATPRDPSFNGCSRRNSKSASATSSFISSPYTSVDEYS

Potassium channel hERG = Potassium channel hERG (Homo sapiens, UniProt Q12809); assay: in vitro
Angiotensine AT1 = Angiotensine AT1 (Homo sapiens, UniProt P30556); assay: radioligand binding (Table S2); details: read-out: % Inhibition @ 10 µM
Angiotensine AT1, sequence (P30556 whole entry): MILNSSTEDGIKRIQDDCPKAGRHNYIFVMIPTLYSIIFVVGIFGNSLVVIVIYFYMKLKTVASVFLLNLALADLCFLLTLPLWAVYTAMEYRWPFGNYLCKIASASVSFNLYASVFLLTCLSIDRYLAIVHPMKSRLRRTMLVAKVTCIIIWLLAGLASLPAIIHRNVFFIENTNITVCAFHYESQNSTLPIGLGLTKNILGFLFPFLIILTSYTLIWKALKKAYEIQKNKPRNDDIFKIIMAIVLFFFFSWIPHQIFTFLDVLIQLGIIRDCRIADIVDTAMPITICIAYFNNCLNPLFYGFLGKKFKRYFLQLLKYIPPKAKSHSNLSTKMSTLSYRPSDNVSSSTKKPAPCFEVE

Cannabinoid CB2 = Cannabinoid CB2 (Homo sapiens, UniProt P34972); assay: radioligand binding (Table S2); details: read-out: % Inhibition @ 10 µM
Cannabinoid CB2, sequence (P34972 whole entry): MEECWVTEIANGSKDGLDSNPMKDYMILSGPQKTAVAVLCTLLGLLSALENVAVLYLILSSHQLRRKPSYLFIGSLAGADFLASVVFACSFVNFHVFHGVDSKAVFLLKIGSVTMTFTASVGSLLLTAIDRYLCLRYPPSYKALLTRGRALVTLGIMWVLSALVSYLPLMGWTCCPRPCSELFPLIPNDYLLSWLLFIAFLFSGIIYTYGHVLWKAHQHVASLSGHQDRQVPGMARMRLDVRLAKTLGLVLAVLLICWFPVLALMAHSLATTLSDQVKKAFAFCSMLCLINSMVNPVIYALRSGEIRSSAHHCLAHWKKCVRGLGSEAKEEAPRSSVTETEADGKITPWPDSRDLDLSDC

[8] = system: Muscarinic, oxotremorine M; assay: radioligand binding (Table S2); details: [3H] Oxotremorine M, Wistar rat cerebral cortex
Muscarinic M3 = Muscarinic M3 (Homo sapiens, UniProt P20309); assay: radioligand binding (Table S2); details: read-out: % Inhibition @ 10 µM
Muscarinic M3, sequence (P20309 whole entry): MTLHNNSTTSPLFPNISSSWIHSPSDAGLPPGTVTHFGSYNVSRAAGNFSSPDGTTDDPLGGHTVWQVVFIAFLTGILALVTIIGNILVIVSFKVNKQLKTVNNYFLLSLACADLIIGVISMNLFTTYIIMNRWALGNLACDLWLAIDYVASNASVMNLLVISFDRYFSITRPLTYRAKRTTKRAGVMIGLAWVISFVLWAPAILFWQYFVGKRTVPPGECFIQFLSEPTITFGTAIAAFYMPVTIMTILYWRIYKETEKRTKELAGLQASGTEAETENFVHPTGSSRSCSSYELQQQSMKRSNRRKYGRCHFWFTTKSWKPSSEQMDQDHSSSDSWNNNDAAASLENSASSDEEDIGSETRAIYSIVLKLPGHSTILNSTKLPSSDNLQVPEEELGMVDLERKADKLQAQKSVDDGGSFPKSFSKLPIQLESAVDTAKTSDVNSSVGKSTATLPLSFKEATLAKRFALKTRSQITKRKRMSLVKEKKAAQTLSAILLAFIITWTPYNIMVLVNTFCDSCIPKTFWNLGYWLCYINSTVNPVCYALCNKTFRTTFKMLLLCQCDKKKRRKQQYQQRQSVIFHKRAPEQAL

Cc1cc(-c2ncnn2C)c2cccc(OCc3c(Cl)cc(F)cc3[C@H](C)NC(=O)COC(F)F)c2n1 [Compound 3, (S)-N-(1-(3-chloro-5-fluoro-2-((2-methyl-4-(1-methyl-1H-1,2,4-triazol-5-yl)quinolin-8-yloxy)methyl)phenyl)ethyl)-2-(difluoromethoxy)acetamide]
IC50 (mouse B2 receptor): ~1200 nM | Kb (mouse B2 receptor): ~350 nM | inhibition at 10 µM (Adenosine A2A): 9.8% | inhibition at 10 µM (Adenosine A3): 39.8% | % Inhibition @ 10 µM [1]: -25.8% | inhibition at 10 µM (Bombesin BB2): -1.4% | % Inhibition @ 10 µM [2]: 5.1% | % Inhibition @ 10 µM [3]: -2% | % Inhibition @ 10 µM [4]: -1% | % Inhibition @ 10 µM (Kainate): -4.4% | inhibition at 10 µM [5]: 16.7% | inhibition at 10 µM (Orexin OX1): 7.1% | inhibition at 10 µM [6]: 14.5% | inhibition at 10 µM [7]: 25% | inhibition at 10 µM (Serotonin 5-HT1B): -2.5% | inhibition at 10 µM (Serotonin 5-HT2C): 5% | inhibition at 10 µM (IRK (InsR)): -17.3% | % of reference agonist response @ 10 µM (agonist effect) (Neurokinin NK3; 10 µM, reference [MePhe7]-NKB (30 nM)): 7.0% | inhibition at 10 µM (Neurokinin NK3; CHO, read-out: % inhibition of reference agonist response @ 10 µM (antagonist effect), 10 µM, [MePhe7]-NKB (1 nM)): 40.8% | IC50 (Neurokinin NK3; [MePhe7]-NKB (1 nM), read-out: IC50 (µM), functional antagonism): 17 µM | Kb (Neurokinin NK3; [MePhe7]-NKB (1 nM), read-out: Kb (µM), functional antagonism): 1.6 µM | inhibition at 60 min, 10 µM (Potassium channel hERG): 17.8% | inhibition at 10 µM (Angiotensine AT1): -4.1% | inhibition at 10 µM (Cannabinoid CB2): -17.7% | % Inhibition @ 10 µM [8]: 18% | inhibition at 10 µM (Muscarinic M3): 4.2%
